The target of the assay is T1, human PTP1B catalytic domain (residues 1–298) (Homo sapiens, UniProt P18031).
T1 construct: The catalytic domain (residues 1–298) of human PTP1B; His tag (N); made in house; host or cells: E. coli
T1 sequence (P18031 1-298): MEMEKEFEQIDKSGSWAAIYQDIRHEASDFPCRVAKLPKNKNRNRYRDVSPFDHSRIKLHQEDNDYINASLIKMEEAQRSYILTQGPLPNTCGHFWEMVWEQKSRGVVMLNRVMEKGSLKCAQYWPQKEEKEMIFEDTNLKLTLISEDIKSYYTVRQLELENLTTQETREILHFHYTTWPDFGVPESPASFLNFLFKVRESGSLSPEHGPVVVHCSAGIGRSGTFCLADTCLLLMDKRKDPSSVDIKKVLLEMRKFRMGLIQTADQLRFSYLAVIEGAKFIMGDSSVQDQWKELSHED
The assay is described as follows: hPTP1B in vitro activity assay (pNPP dephosphorylation). The class given is biochemical. Particulars: Isomer 1 compared with Isomer 2 (5S/5R diastereomers separated by chiral HPLC).

Experimental: Compounds were serially diluted in DMSO and spotted into the assay plate. Both the enzyme and substrate were diluted into the assay buffer containing 25 mM tris-bis-propone (pH 7.0 @ rt) and 0.1 mg/ml of BSA. 40 of μL enzyme solution was added to the assay plate containing compounds and was incubated for 30 minutes. 40 μL of substrate solution was then added to the assay plate to initiate the reaction. The initial reaction rates of the dephosphorylation of p-nitrophenylphosphate to p-nitrophenol are measured by monitoring absorbance at 410 nm on a SpectraMax for 15–30 min.

Regarding `O=C(O)C(F)(F)F.O=C(O)C(F)(F)F.O=C1C[C@@H](c2ccc(C[C@H](Nc3nc4cc(F)ccc4s3)c3nc4ccccc4[nH]3)cc2)S(=O)(=O)N1.O=C1C[C@H](c2ccc(C[C@H](Nc3nc4cc(F)ccc4s3)c3nc4ccccc4[nH]3)cc2)S(=O)(=O)N1` (single isomer, unassigned; isomer 1) [4.179 Isomer 1], the “relative biological activity of the separated diastereomers in the enzyme assay” value is recorded as “more biologically active”.

These data come from patent publication US7141596B2, “Inhibitors of proteins that bind phosphorylated molecules” (Incyte Corporation, priority 2003, dated 2006).
